This is an account of results in ChEMBL document CHEMBL3526000 (Drug Metab Dispos, 2012).

What all share (assay type): ADME
The target in data set [1] is T1, UDP-glucuronosyltransferase 1A4 (Homo sapiens, UniProt P22310).
T1 sequence (P22310 whole entry): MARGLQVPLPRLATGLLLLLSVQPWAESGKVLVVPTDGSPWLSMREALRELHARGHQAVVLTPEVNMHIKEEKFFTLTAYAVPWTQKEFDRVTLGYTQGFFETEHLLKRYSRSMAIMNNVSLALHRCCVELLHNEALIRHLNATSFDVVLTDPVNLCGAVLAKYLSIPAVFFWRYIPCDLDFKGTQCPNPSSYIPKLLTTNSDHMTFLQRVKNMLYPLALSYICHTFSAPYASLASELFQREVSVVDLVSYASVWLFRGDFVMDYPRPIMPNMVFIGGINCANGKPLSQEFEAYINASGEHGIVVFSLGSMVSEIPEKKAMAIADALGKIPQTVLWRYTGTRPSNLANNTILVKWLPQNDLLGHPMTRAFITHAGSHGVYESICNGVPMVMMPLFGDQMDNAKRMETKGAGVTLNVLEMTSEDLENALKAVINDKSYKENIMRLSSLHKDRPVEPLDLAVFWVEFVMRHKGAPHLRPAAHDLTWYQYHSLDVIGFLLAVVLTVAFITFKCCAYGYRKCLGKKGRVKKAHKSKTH
The experiment in a line: Drug metabolism assessed as UGT1A4 activity in human liver microsome assessed as of N-glucuronidation at 25 to 200 uM incubated for 60 mins by LC-MS/MS analysis. The conditions noted are these: microsomes, 1 h.

Data set [2] has as its system Liver microsome. The experiment in a line: Drug metabolism assessed as Sprague-Dawley rat liver microsomes assessed as compound formation treated with at 100 uM haloperidol by LC-MS/MS analysis.
The target in data set [3] is T2, UDP-glucuronosyltransferase 2B7 (Homo sapiens, UniProt P16662).
T2 sequence (P16662 whole entry): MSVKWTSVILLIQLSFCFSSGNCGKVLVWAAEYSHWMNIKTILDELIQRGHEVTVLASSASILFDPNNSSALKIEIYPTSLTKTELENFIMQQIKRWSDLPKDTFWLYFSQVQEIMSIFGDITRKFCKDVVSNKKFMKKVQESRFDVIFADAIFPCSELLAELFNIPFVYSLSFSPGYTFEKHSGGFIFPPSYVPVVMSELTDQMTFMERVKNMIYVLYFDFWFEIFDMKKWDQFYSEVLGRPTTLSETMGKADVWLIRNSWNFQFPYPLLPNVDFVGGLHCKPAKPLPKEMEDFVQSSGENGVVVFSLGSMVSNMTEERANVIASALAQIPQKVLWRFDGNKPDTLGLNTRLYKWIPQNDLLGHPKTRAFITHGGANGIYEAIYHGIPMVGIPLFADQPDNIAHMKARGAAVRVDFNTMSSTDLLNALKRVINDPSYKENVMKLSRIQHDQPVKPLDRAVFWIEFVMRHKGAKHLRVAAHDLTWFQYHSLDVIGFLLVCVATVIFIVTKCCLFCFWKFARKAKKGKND
The experiment in a line: Drug metabolism assessed as UGT2B7 activity in human liver microsome assessed as of O-glucuronidation at 25 to 200 uM incubated for 60 mins by LC-MS/MS analysis. The conditions noted are these: microsomes, 1 h.

Consider `CN1CCN(CCCN2c3ccccc3Sc3ccc(C(F)(F)F)cc32)CC1.Cl`, for which the Drug metabolism in data set [1] is 0.26 nmol/min/mg. On to `O=C(CCCN1CCC(O[C@@H]2O[C@H](C(=O)O)[C@@H](O)[C@H](O)[C@H]2O)(c2ccc(Cl)cc2)CC1)c1ccc(F)cc1`, for which, in data set [2], the Drug metabolism entry is reported as “metabolite_detected”. Consider `Cc1cn([C@H]2C[C@H](N=[N+]=[N-])[C@@H](CO)O2)c(=O)[nH]c1=O` [ZIDOVUDINE], for which the Drug metabolism in data set [3] stood at 0.14 nmol/min/mg.
